In EP4603105A1, “PHARMACEUTICAL COMPOSITION CONTAINING CYCLIC COMPOUND HAVING SELECTIVE KRAS INHIBITORY EFFECT AGAINST HRAS AND NRAS” (CHUGAI SEIYAKU KABUSHIKI KAISHA, priority 2022, dated 2024):
Read-outs that look alike come from different tables or passages of the source.

What was measured:
[1] = molecular target: GDP-bound KRAS wild-type protein (Homo sapiens, UniProt P01116); assay: Binding to KRAS by surface plasmon resonance (SPR), dissociation constant KD
Method in brief: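 Compound binding is evaluated by SPR single-cycle kinetics, with concentrations added intermittently from low to high for 75 s each. Target surfaces carry GDP-loaded biotinylated Avi-RAS at about 100–300 RU, regenerated after each cycle; temperature 30°C. A 1:1 binding model gives KD.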

[2] = molecular target: GDP-bound NRAS wild-type protein (Homo sapiens, UniProt P01111); assay: Binding to NRAS by surface plasmon resonance (SPR), KD and KD ratio to KRAS
Method in brief: (§1)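 Affinity is measured by surface plasmon resonance at 30°C against captured, GDP-loaded RAS carrying a biotinylated Avi tag. Compounds are titrated by single-cycle kinetics, and KD comes from a 1:1 fit.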

HRAS wild-type protein = HRAS wild-type protein (Homo sapiens, UniProt P01112); assay: Binding to HRAS by surface plasmon resonance (SPR), KD and KD ratio to KRAS
Method in brief: as §1

[3] = tested on: human lung cancer strain NCI-H441; assay: NCI-H441 cell proliferation inhibitory activity (CellTiter-Glo, 4 days); assay type: cell-based; conditions: read-out: NCl-H441 IC50
Method in brief: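 Readout: […] after the ATP-based reagent. Compound: serial dilutions in dimethyl sulfoxide.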

[4] = ratio of KD for GDP-bound NRAS wild-type protein to KD for KRAS
[5] = ratio of KD for HRAS wild-type protein to KD for KRAS
[6] = Single Cycle Kinetics, 1:1 binding model
[7] = ratio of KD with respect to GDP-bound NRAS wild-type protein to KD with respect to KRAS
[8] = ratio of KD with respect to HRAS wild-type protein to KD with respect to KRAS
[9] = 50% proliferation inhibitory concentration, four days

GDP-bound NRAS wild-type protein, sequence (P01111 whole entry): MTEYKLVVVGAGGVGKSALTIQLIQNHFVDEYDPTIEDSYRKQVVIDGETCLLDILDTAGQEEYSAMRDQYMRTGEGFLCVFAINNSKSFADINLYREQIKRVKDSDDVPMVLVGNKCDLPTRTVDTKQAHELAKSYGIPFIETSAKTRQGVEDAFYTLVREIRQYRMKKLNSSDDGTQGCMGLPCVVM
GDP-bound KRAS wild-type protein, sequence (P01116 1-188 isoform P01116-2): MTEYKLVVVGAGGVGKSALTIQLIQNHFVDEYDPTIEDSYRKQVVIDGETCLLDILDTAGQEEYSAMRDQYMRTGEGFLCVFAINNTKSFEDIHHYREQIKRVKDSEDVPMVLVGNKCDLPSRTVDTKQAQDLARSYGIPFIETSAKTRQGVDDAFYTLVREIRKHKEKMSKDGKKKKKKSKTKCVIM
HRAS wild-type protein, sequence (P01112 whole entry): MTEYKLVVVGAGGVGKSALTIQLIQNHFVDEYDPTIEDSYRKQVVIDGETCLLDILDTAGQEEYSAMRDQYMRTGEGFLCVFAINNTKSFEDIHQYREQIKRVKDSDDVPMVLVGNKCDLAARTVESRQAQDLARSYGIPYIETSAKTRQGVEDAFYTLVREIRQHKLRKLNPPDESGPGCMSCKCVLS

| SMILES | Kd ([1]; 1:1 binding model) [nM] | NRAS /KRAS [2, 4] | HRAS /KRAS (HRAS wild-type protein; [5]) | IC50 ([3]; NCI-H441 cells, 4 days) [nM] | Kd [1, 6] [nM] | NRAS /KRAS [2, 7] | HRAS /KRAS (HRAS wild-type protein; [8]) | IC50 [3, 9] [nM] | Kd ([1]; Single Cycle Kinetics) [nM] |
| --- | --- | --- | --- | --- | --- | --- | --- | --- | --- |
| CCCOC[C@H]1C(=O)N[C@@H]([C@@H](C)CC)C(=O)N(C)CC(=O)N(C)[C@H]2C/C=C\CCN(C2=O)[C@@H](Cc2ccc(C)cc2)C(=O)N(C)CC(=O)N[C@@H](CCc2ccc(C(F)(F)F)c(Cl)c2)C(=O)N2C[C@H](OCC)C[C@H]2C(=O)NC2(CC(C)(C)C2)C(=O)N(C)[C@@H](C2CCCC2)C(=O)N(C)[C@H](C(=O)N(C)C)CC(=O)N1C [PP2402] | 0.092 | A (a compound having 10 or more and less than 20 is denoted as A) | A (a compound having 10 or more and less than 20 is denoted as A) | 10.6 |  |  |  |  |  |
| CCCOC[C@H]1C(=O)N[C@@H]([C@@H](C)CC)C(=O)N(C)CC(=O)N(C)[C@H]2C/C=C\CCN(C2=O)[C@@H](Cc2ccc(C)cc2)C(=O)N(C)CC(=O)N[C@@H](CCc2cc(F)c(C(F)(F)F)c(F)c2)C(=O)N2C[C@H](OCC)C[C@H]2C(=O)NC2(CC(C)(C)C2)C(=O)N(C)[C@@H](CC2CCC2)C(=O)N(C)[C@H](C(=O)N(C)C)CC(=O)N1C [PP2752] | 1.2 | A (a compound having 10 or more and less than 20 is denoted as A) | A (a compound having 10 or more and less than 20 is denoted as A) | 70.3 |  |  |  |  |  |
| CCO[C@@H]1C[C@H]2C(=O)NC3(CCC3)C(=O)N(C)[C@@H](C3CCCC3)C(=O)N(C)[C@H](C(=O)N(C)C)CC(=O)N(C)[C@@H](CC(C)(C)C)C(=O)N[C@@H]([C@@H](C)CC)C(=O)N(C)CC(=O)N(C)[C@H]3C/C=C\CCN(C3=O)[C@@H](CC3CCC(F)(F)CC3)C(=O)N(C)CC(=O)N[C@@H](CCc3cc(F)c(C(F)(F)F)c(F)c3)C(=O)N2C1 [PP1460] |  |  |  |  | 0.23 | A (a compound having 10 or more and less than 20 is denoted as A) | A (a compound having 10 or more and less than 20 is denoted as A) | 32.9 |  |
| CCCCCC[C@H]1C(=O)N[C@@H]([C@@H](C)CC)C(=O)N(C)CC(=O)N(C)[C@H]2C/C=C\CCN(C2=O)[C@@H](Cc2ccc(C(F)(F)F)cc2)C(=O)N(C)CC(=O)N[C@@H](CCc2ccc3sccc3c2)C(=O)N2C[C@H](OCC)C[C@H]2C(=O)NC2(CCC2)C(=O)N(C)[C@@H](C2CCCC2)C(=O)N(C)[C@H](C(=O)N(C)C)CC(=O)N1C [PP1259] |  |  |  |  | 0.49 | A (a compound having 10 or more and less than 20 is denoted as A) | A (a compound having 10 or more and less than 20 is denoted as A) | 62 |  |
| CCC(CC)[C@H]1C(=O)N(C)[C@H](C(=O)N(C)C)CC(=O)N(C)[C@@H](CC2CC2)C(=O)N[C@@H]([C@@H](C)CC)C(=O)N(C)CC(=O)N(C)[C@H]2C/C=C\CCN(C2=O)[C@@H](CC2CCC(F)(F)CC2)C(=O)N(C)CC(=O)N[C@@H](CCc2cc(F)c(C(F)(F)F)c(F)c2)C(=O)N2C[C@@H](C)C[C@H]2C(=O)NC2(CC(C)(C)C2)C(=O)N1C [PP2500] | 1.7 | A (a compound having 10 or more and less than 20 is denoted as A) | A (a compound having 10 or more and less than 20 is denoted as A) | 125 |  |  |  |  |  |
| CCC[C@H]1C(=O)N[C@@H]([C@@H](C)CC)C(=O)N(C)CC(=O)N(C)[C@H]2C/C=C\CCN(C2=O)[C@@H](Cc2ccc(C(F)(F)F)cc2)C(=O)N(C)CC(=O)N[C@@H](CCc2cc(F)c(Cl)c(F)c2)C(=O)N2C[C@H](OCC)C[C@H]2C(=O)NC2(CCC2)C(=O)N(C)[C@@H](C(CC)CC)C(=O)N(C)[C@H](C(=O)N(C)C)CC(=O)N1C [PP1231] |  |  |  |  | 0.56 | AA (a compound having 20 or more is denoted as AA) | A (a compound having 10 or more and less than 20 is denoted as A) | 23.1 |  |
| CCC[C@H]1C(=O)N[C@@H]([C@@H](C)CC)C(=O)N(C2CC2)CC(=O)N(C)[C@H]2C/C=C\CCN(C2=O)[C@@H](Cc2ccc(C)cc2)C(=O)N(C)CC(=O)N[C@@H](CCc2ccc(Cl)c(Cl)c2)C(=O)N2C[C@H](OCC)C[C@H]2C(=O)NC2(CC(C)(C)C2)C(=O)N(C)[C@@H](CC(C)(C)C)C(=O)N(C)[C@H](C(=O)N(C)C)CC(=O)N1C [PP2726] | 1.1 | AA (a compound having 20 or more is denoted as AA) | A (a compound having 10 or more and less than 20 is denoted as A) | 51 |  |  |  |  |  |
| CCCN(C)C(=O)[C@@H]1CC(=O)N(C)[C@@H](CC(C)C)C(=O)N[C@@H]([C@@H](C)CC)C(=O)N2CCC[C@H]2C(=O)N(C)[C@H]2C/C=C\CCN(C2=O)[C@@H](Cc2ccc(C(F)(F)F)cc2)C(=O)N(C)CC(=O)N[C@@H](CCc2cc(F)c(C(F)(F)F)c(F)c2)C(=O)N2C[C@H](OCC)C[C@H]2C(=O)N[C@]2(C[C@H](OC)C2)C(=O)N(C)[C@@H](C2CCCC2)C(=O)N1C [PP3355] |  | A (a compound having 10 or more and less than 20 is denoted as A) | A (a compound having 10 or more and less than 20 is denoted as A) | 45.5 |  |  |  |  | 1.1 |
| CCC[C@H]1C(=O)N[C@@H]([C@@H](C)CC)C(=O)N2CCC[C@H]2C(=O)N(C)[C@H]2C/C(F)=C\CCN(C2=O)[C@@H](Cc2ccc(C)cc2)C(=O)N(C)CC(=O)N[C@@H](CCc2cc(F)c(C(F)(F)F)c(F)c2)C(=O)N2C[C@H](OCC)C[C@H]2C(=O)N(C)C2(CCC2)C(=O)N(C)[C@@H](C2CCCC2)C(=O)N(C)[C@H](C(=O)N(C)C)CC(=O)N1C [PP3526] |  | B (a compound having 3 or more and less than 10 is denoted as B) | B (a compound having 3 or more and less than 10 is denoted as B) | 10.9 |  |  |  |  | 0.29 |
| CCO[C@@H]1C[C@H]2C(=O)NC3(CC(C)(C)C3)C(=O)N(C)[C@@H](C3CCCC3)C(=O)N(C)[C@H](C(=O)N(C)CC)CC(=O)N(C)[C@@H]([C@H](C)OC)C(=O)N[C@@H]([C@@H](C)CC)C(=O)N(C3CC3)CC(=O)N(C)[C@H]3C/C=C\CCN(C3=O)[C@@H](Cc3ccc(C(F)(F)F)cc3)C(=O)N(C)CC(=O)N[C@@H](CCc3ccc(C(F)(F)F)c(Cl)c3)C(=O)N2C1 [PP3221] |  | A (a compound having 10 or more and less than 20 is denoted as A) | A (a compound having 10 or more and less than 20 is denoted as A) | 51.5 |  |  |  |  | 0.82 |
| CCO[C@@H]1C[C@H]2C(=O)NC3(CC(C)(C)C3)C(=O)N(C)[C@@H](CC(C)(C)C)C(=O)N(C)[C@H](C(=O)N(C)C)CC(=O)N(C)[C@@H](COC)C(=O)N[C@@H]([C@@H](C)CC)C(=O)N(C3CC3)CC(=O)N(C)[C@H]3C/C=C\CCN(C3=O)[C@@H](Cc3ccc(C(F)(F)F)cc3)C(=O)N(C)CC(=O)N[C@@H](CCc3ccc(C(F)(F)F)c(OC)c3)C(=O)N2C1 [PP2748] | 0.2 | A (a compound having 10 or more and less than 20 is denoted as A) | A (a compound having 10 or more and less than 20 is denoted as A) | 7.1 |  |  |  |  |  |
| CCO[C@@H]1C[C@H]2C(=O)NC3(CCC3)C(=O)N(C)[C@@H](C3CCCC3)C(=O)N(C)[C@H](C(=O)N3CCOCC3)CC(=O)N(C)[C@@H](CC)C(=O)N[C@@H]([C@@H](C)CC)C(=O)N(C)CC(=O)N(C)[C@H]3C[C@@H](C)[C@@H](C)CN(C3=O)[C@@H](Cc3ccc(C(F)(F)F)cc3)C(=O)N(C)CC(=O)N[C@@H](CCc3cc(F)c(C(F)(F)F)c(F)c3)C(=O)N2C1 [PP1354] |  |  |  |  | 0.056 | A (a compound having 10 or more and less than 20 is denoted as A) | B (a compound having 3 or more and less than 10 is denoted as B) | 3.6 |  |
| CCC[C@H]1C(=O)N[C@@H]([C@@H](C)CC)C(=O)N2CCC[C@H]2C(=O)N(C)[C@H]2C/C=C\CCN(C2=O)[C@@H](Cc2ccc(C(F)(F)F)cc2)C(=O)N(C)CC(=O)N[C@@H](CCc2ccc(C(F)(F)F)c(OC)c2)C(=O)N2C[C@@H](C)C[C@H]2C(=O)N(C)C2(CCC2)C(=O)N(C)[C@@H](C2CCCC2)C(=O)N(C)[C@H](C(=O)N(C)C)CC(=O)N1C [PP2362] | 0.076 | A (a compound having 10 or more and less than 20 is denoted as A) | A (a compound having 10 or more and less than 20 is denoted as A) | 4.8 |  |  |  |  |  |
| CCO[C@@H]1C[C@H]2C(=O)NC3(CC(C)(C)C3)C(=O)N(C)[C@@H](C3CCCC3)C(=O)N(C)[C@H](C(=O)N(C)C)CC(=O)N(C)[C@@H]([C@H](C)OC)C(=O)N[C@@H]([C@@H](C)CC)C(=O)N(C3CC3)CC(=O)N(C)[C@H]3C/C=C\CCN(C3=O)[C@@H](Cc3ccc(C(F)(F)F)cc3)C(=O)N(C)CC(=O)N[C@@H](CCc3ccc(C(F)(F)F)c(OC)c3)C(=O)N2C1 [PP3173] |  | B (a compound having 3 or more and less than 10 is denoted as B) | B (a compound having 3 or more and less than 10 is denoted as B) | 33.1 |  |  |  |  | 0.57 |
| CCC[C@H]1C(=O)N[C@@H](C23CC(C2)C3)C(=O)N2CCC[C@H]2C(=O)N(C)[C@H]2C/C=C\CCN(C2=O)[C@@H](Cc2ccc(C)cc2)C(=O)N(C)CC(=O)N[C@@H](CCc2ccc(C(F)(F)F)c(OC)c2)C(=O)N2C[C@H](OCC)C[C@H]2C(=O)N(C)C2(CCC2)C(=O)N(C)[C@@H](C2CCCC2)C(=O)N(C)[C@H](C(=O)N(C)C)CC(=O)N1C [PP3342] |  | A (a compound having 10 or more and less than 20 is denoted as A) | A (a compound having 10 or more and less than 20 is denoted as A) | 22.8 |  |  |  |  | 1.8 |
